Here are results for ten compounds from patent US12662494B2, “Optically active bridged piperidine derivative” (Sumitomo Pharma Co., Ltd., priority 2018, dated 2026).

The test system of one series is RS4; 11 cells. As to the kind of experiment: Test 2: inhibition of cell proliferation, RS4;11. In kind it is cell-based. The following applies: for IC50: RS4;11 cells, 7 days, PrestoBlue cell viability; for cell proliferation inhibition activity, good (in words) / cell proliferation inhibitory activity, potent (in words): summary of Test 2 table, RS4;11 and MOLM-13. The procedure: (§1) Test 2: Test for Evaluating the Inhibition of Cell Proliferation
(§2) RS4; 11 cells were obtained from American Type Culture Collection (ATCC). The cells were cultured at 37° C. in the presence of 5% CO2 in RPMI 1640 medium containing 10% fetal bovine serum and 1% penicillin/streptomycin. MOLM-13 cells were separately obtained from DSMZ (Deutsche Sammlung von Mikroorganismen und Zellkulturen GmbH). The cells were cultured at 37° C. in the presence of 5% CO2 in RPMI 1640 medium containing […] and 1% penicillin/streptomycin.
(§3) The cells were plated to a 96-well plate in 2000 cells/well, each test compound was added thereto to adjust the final concentration of DMSO to 0.1% of DMSO, and the cells were cultured for 7 days. After the cultivation, the cell viability was calculated with PrestoBlue™ Cell Viability Reagent (Invitrogen, A13261). The IC50 value was calculated from a survival curve, that corresponds to the concentration of the test compound at which the cell proliferation inhibition rate is 50%.

The test system of a further series is MOLM-13 cells. The series can be described thus: Test 2: inhibition of cell proliferation, MOLM-13. In kind it is cell-based. The following applies: 7 days, PrestoBlue cell viability. The procedure:
as §1, §2, §3

A short description of series [1]: Test 4: pharmacokinetic study, oral, mouse. The following applies: for AUC(0-t): male, NOD.CB17-Prkdcscid/J, plasma, po, 100 mg/kg; for compound-exposure in plasma (in words): summary of Test 4 table, oral 100 mg/kg.
Protocol: Test 4: Pharmacokinetic Study
The test compound suspended in 0.5% methylcellulose was orally administered to 7-week-old male NOD. CB17-Prkdcscid/J mouse in a dose of 100 mg/kg. The blood sample was taken from jugular vein without anesthesia over time for 24 hours. The blood sample was centrifuged to obtain plasma. The plasma was pre-treated by methanol extraction method, and then analyzed with an LC-MS/MS to determine the concentration of the test compound. Based on the data from 0 hour after the administration until the time (t) when there was the final detection in the plasma, AUC was calculated by trapezoidal method.

A value given as a limit tells only on which side of the number the result lay.

Take `C=C1C[C@@H]2CC[C@H]1[C@@H](C(=O)N1CCC3(CC1)CN(c1c(C(F)(F)F)cnc4sc(CC(F)(F)F)cc14)C3)N2` [Example 21, [(1S,3S,4R)-5-(^2H2)methylidene-2-azabicyclo[2.2.2]octan-3-yl]{2-[2-(2,2,2-trifluoroethyl)-5-(trifluoromethyl)thieno[2,3-b]pyridin-4-yl]-2,7-diazaspiro[3.5]nonan-7-yl}methanone]: the IC50 in the series on RS4; 11 cells and in the series with MOLM-13 cells was < 30 nM each time.
For the compound `C=C1C[C@@H]2CC[C@H]1[C@@H](C(=O)N1CCC3(CC1)CN(c1c(C#N)cnc4sc(CC(F)(F)F)cc14)C3)N2` [Example 28, 4-{7-[(1S,3S,4R)-5-Methylidene-2-azabicyclo[2.2.2]octane-3-carbonyl]-2,7-diazaspiro[3.5]nonan-2-yl}-2-(2,2,2-trifluoroethyl)thieno[2,3-b]pyridine-5-carbonitrile], the concentration for half-maximal inhibition (IC50) with RS4; 11 cells (Homo sapiens, 168 h) turned out to be 70 nM; in the series on MOLM-13 cells (Homo sapiens, 168 h), 60 nM. This compound also gave an area under the curve AUC(0-t) in series [1] of 11600 ng·h/mL. The “compound-exposure in plasma (in words)” value in series [1] is listed as “good compound-exposure in plasma”.
Regarding `N#Cc1cnc2sc(CC(F)(F)F)cc2c1N1CC2(CCN(C(=O)[C@H]3N[C@H]4CC[C@@H]3C[C@@H]4CC3CC3)CC2)C1` [Example 25, 4-{7-[(1S,3S,4R,6S)-6-(cyclopropylmethyl)-2-azabicyclo[2.2.2]octane-3-carbonyl]-2,7-diazaspiro[3.5]nonan-2-yl}-2-(2,2,2-trifluoroethyl)thieno[2,3-b]pyridine-5-carbonitrile], the half-maximal inhibitory concentration (IC50) in the series with RS4; 11 cells (Homo sapiens, 168 h) is < 30 nM; with MOLM-13 cells (Homo sapiens, 168 h) it was 40 nM. In addition, in the series on RS4; 11 cells, the “cell proliferation inhibition activity, good (in words)” value (from here on “cell proliferation inhibition activity”) was “good cell proliferation inhibition activity”. For the same compound, in the series with RS4; 11 cells, the “cell proliferation inhibitory activity, potent (in words)” value (shortened to “cell proliferation inhibitory activity”) is “potent cell proliferation inhibitory activity”.
On to `O=C([C@H]1N[C@H]2CC[C@@H]1C[C@@H]2CC1CC1)N1CCC2(CC1)CN(c1c(C(F)(F)F)cnc3sc(CC(F)(F)F)cc13)C2` [Example 22, [(1S,3S,4R,6S)-6-(cyclopropylmethyl)-2-azabicyclo[2.2.2]octan-3-yl]{2-[2-(2,2,2-trifluoroethyl)-5-(trifluoromethyl)thieno[2,3-b]pyridin-4-yl]-2,7-diazaspiro[3.5]nonan-7-yl}methanone], for which, in the series with RS4; 11 cells (Homo sapiens, 168 h), the half-inhibitory concentration (IC50) is < 30 nM. In the series with RS4; 11 cells, the “cell proliferation inhibition activity” value is reported as “good cell proliferation inhibition activity” and the “cell proliferation inhibitory activity” value is on record as “potent cell proliferation inhibitory activity”. The compound further came in with a concentration for half-maximal inhibition (IC50) in the series with MOLM-13 cells (Homo sapiens, 168 h) of 30 nM.
Compound `C=C1C[C@@H]2CC[C@H]1[C@@H](C(=O)N1CCC3(CC1)CN(c1c(C(F)(F)F)cnc4sc(CC(F)(F)F)cc14)C3)N2` [Example 27, [(1S,3S,4R)-5-Methylidene-2-azabicyclo[2.2.2]octan-3-yl]{2-[2-(2,2,2-trifluoroethyl)-5-(trifluoromethyl)thieno[2,3-b]pyridin-4-yl]-2,7-diazaspiro[3.5]nonan-7-yl}methanone] showed an IC50 in the series with RS4; 11 cells (Homo sapiens, 168 h) of 50 nM. In the series on RS4; 11 cells, the “cell proliferation inhibition activity” value is “good cell proliferation inhibition activity” and the “cell proliferation inhibitory activity” value is reported as “potent cell proliferation inhibitory activity”. The same compound returned an IC50 in the series on MOLM-13 cells (Homo sapiens, 168 h) of 70 nM. For the same compound, in series [1], the AUC(0-t) amounted to 17300 ng·h/mL and the “compound-exposure in plasma (in words)” value was “good compound-exposure in plasma”.
As to `C=C1C[C@@H]2CC[C@H]1[C@@H](C(=O)N1CC3(C1)CN(c1c(C(F)(F)F)cnc4sc(CC(F)(F)F)cc14)C3)N2` [Example 17, [(1S,3S,4R)-5-(^2H2)methylidene-2-azabicyclo[2.2.2]octan-3-yl]{6-[2-(2,2,2-trifluoroethyl)-5-(trifluoromethyl)thieno[2,3-b]pyridin-4-yl]-2,6-diazaspiro[3.3]heptan-2-yl}methanone], the IC50 in the series on RS4; 11 cells and in the series on MOLM-13 cells was < 30 nM each time.
For `[2H]C([2H])=C1C[C@@H]2CC[C@H]1[C@@H](C(=O)N1CC3(C1)CN(c1c(C(F)(F)F)cnc4sc(CC(F)(F)F)cc14)C3)N2` [Example 17, [(1S,3S,4R)-5-(^2H2)methylidene-2-azabicyclo[2.2.2]octan-3-yl]{6-[2-(2,2,2-trifluoroethyl)-5-(trifluoromethyl)thieno[2,3-b]pyridin-4-yl]-2,6-diazaspiro[3.3]heptan-2-yl}methanone], in the series with RS4; 11 cells, the “cell proliferation inhibition activity” value is “good cell proliferation inhibition activity” and the “cell proliferation inhibitory activity” value was “potent cell proliferation inhibitory activity”.
On to `C=C1C[C@@H]2C[C@H]1[C@@H](C(=O)N1CCC3(CC1)CN(c1c(C(F)(F)F)cnc4sc(CC(F)(F)F)cc14)C3)N2` [Example 23, [(1S,3S,4R)-5-methylidene-2-azabicyclo[2.2.1]heptan-3-yl]{2-[2-(2,2,2-trifluoroethyl)-5-(trifluoromethyl)thieno[2,3-b]pyridin-4-yl]-2,7-diazaspiro[3.5]nonan-7-yl}methanone], for which the 50% inhibitory concentration (IC50) in the series on RS4; 11 cells (Homo sapiens, 168 h) worked out at 100 nM; in the series with MOLM-13 cells (Homo sapiens, 168 h), 110 nM.
For the compound `C=C1C[C@@H]2CC[C@H]1[C@@H](C(=O)N1CCC3(CC1)CN(c1c(C#N)cnc4sc(CC(F)(F)F)cc14)C3)N2` [Example 24, 4-{7-[(1S,3S,4R)-5-(^2H2)methylidene-2-azabicyclo[2.2.2]octane-3-carbonyl]-2,7-diazaspiro[3.5]nonan-2-yl}-2-(2,2,2-trifluoroethyl)thieno[2,3-b]pyridine-5-carbonitrile], the IC50 in the series with RS4; 11 cells and in the series on MOLM-13 cells was < 30 nM in each case.
Take `C=C1C[C@@H]2C[C@H]1[C@@H](C(=O)N1CCC3(CC1)CN(c1c(C#N)cnc4sc(CC(F)(F)F)cc14)C3)N2` [Example 26, 4-{7-[(1S,3S,4R)-5-methylidene-2-azabicyclo[2.2.1]heptane-3-carbonyl]-2,7-diazaspiro[3.5]nonan-2-yl}-2-(2,2,2-trifluoroethyl)thieno[2,3-b]pyridine-5-carbonitrile]: the IC50 was 300 nM in the series with RS4; 11 cells (Homo sapiens, 168 h) and 300 nM with MOLM-13 cells (Homo sapiens, 168 h).

What is called IC50 is the concentration needed to halve the response being measured. A low value points to inhibition by little substance. The AUC(0-t) is exposure summed from dosing to a finite time, without extrapolation to infinity. The low end stands for low exposure, the high end for high exposure.
